Measured values as given in the NIST ThermoML archive (doi:10.1016/j.jct.2012.03.003).

Test: xn = mol fraction of the nth substance listed
Conditions: Liquid, Vibrating tube method

COc1cc2c(cc1O)CC1c3c(cc(O)c(OC)c3-2)CCN1C (stereo not given) [boldine] + CCO
Conditions | mass density [kg/m3]
313.01 K, 1000 kPa, x1 = 0.0196 | 817.64
313.01 K, 2000 kPa, x1 = 0.0196 | 818.47
313.01 K, 3000 kPa, x1 = 0.0196 | 819.29
313.01 K, 4000 kPa, x1 = 0.0196 | 820.13
313.01 K, 5000 kPa, x1 = 0.0196 | 820.98
313.01 K, 6000 kPa, x1 = 0.0196 | 821.82
313.01 K, 7000 kPa, x1 = 0.0196 | 822.67
313.01 K, 8000 kPa, x1 = 0.0196 | 823.53
313.01 K, 9000 kPa, x1 = 0.0196 | 824.37
313.01 K, 10000 kPa, x1 = 0.0196 | 825.22
313.01 K, 11000 kPa, x1 = 0.0196 | 826.07
313.01 K, 12000 kPa, x1 = 0.0196 | 826.9
313.01 K, 13000 kPa, x1 = 0.0196 | 827.74
313.01 K, 14000 kPa, x1 = 0.0196 | 828.55
313.01 K, 15000 kPa, x1 = 0.0196 | 829.36
313.01 K, 16000 kPa, x1 = 0.0196 | 830.17
313.01 K, 17000 kPa, x1 = 0.0196 | 830.96
313.01 K, 18000 kPa, x1 = 0.0196 | 831.74
313.01 K, 19000 kPa, x1 = 0.0196 | 832.5
313.01 K, 20000 kPa, x1 = 0.0196 | 833.23
313.09 K, 1000 kPa, x1 = 0.0012 | 775.75
313.09 K, 1000 kPa, x1 = 0.0267 | 829.8
313.09 K, 2000 kPa, x1 = 0.0012 | 776.61
313.09 K, 2000 kPa, x1 = 0.0267 | 830.62
313.09 K, 3000 kPa, x1 = 0.0012 | 777.49
313.09 K, 3000 kPa, x1 = 0.0267 | 831.43
313.09 K, 4000 kPa, x1 = 0.0012 | 778.37
313.09 K, 4000 kPa, x1 = 0.0267 | 832.27
313.09 K, 5000 kPa, x1 = 0.0012 | 779.27
313.09 K, 5000 kPa, x1 = 0.0267 | 833.1
313.09 K, 6000 kPa, x1 = 0.0012 | 780.17
313.09 K, 6000 kPa, x1 = 0.0267 | 833.94
313.09 K, 7000 kPa, x1 = 0.0012 | 781.08
313.09 K, 7000 kPa, x1 = 0.0267 | 834.77
313.09 K, 8000 kPa, x1 = 0.0012 | 781.99
313.09 K, 8000 kPa, x1 = 0.0267 | 835.61
313.09 K, 9000 kPa, x1 = 0.0012 | 782.89
313.09 K, 9000 kPa, x1 = 0.0267 | 836.46
313.09 K, 10000 kPa, x1 = 0.0012 | 783.79
313.09 K, 10000 kPa, x1 = 0.0267 | 837.26
313.09 K, 11000 kPa, x1 = 0.0012 | 784.7
313.09 K, 11000 kPa, x1 = 0.0267 | 838.09
313.09 K, 12000 kPa, x1 = 0.0012 | 785.59
313.09 K, 12000 kPa, x1 = 0.0267 | 838.91
313.09 K, 13000 kPa, x1 = 0.0012 | 786.48
313.09 K, 13000 kPa, x1 = 0.0267 | 839.73
313.09 K, 14000 kPa, x1 = 0.0012 | 787.35
313.09 K, 14000 kPa, x1 = 0.0267 | 840.53
313.09 K, 15000 kPa, x1 = 0.0012 | 788.21
313.09 K, 15000 kPa, x1 = 0.0267 | 841.33
313.09 K, 16000 kPa, x1 = 0.0012 | 789.07
313.09 K, 16000 kPa, x1 = 0.0267 | 842.12
313.09 K, 17000 kPa, x1 = 0.0012 | 789.89
313.09 K, 17000 kPa, x1 = 0.0267 | 842.89
313.09 K, 18000 kPa, x1 = 0.0012 | 790.71
313.09 K, 18000 kPa, x1 = 0.0267 | 843.66
313.09 K, 19000 kPa, x1 = 0.0012 | 791.52
313.09 K, 19000 kPa, x1 = 0.0267 | 844.41
313.09 K, 20000 kPa, x1 = 0.0012 | 792.31
313.09 K, 20000 kPa, x1 = 0.0267 | 845.14
313.1 K, 1000 kPa, x1 = 0.0074 | 788.76
313.1 K, 2000 kPa, x1 = 0.0074 | 789.61
313.1 K, 3000 kPa, x1 = 0.0074 | 790.46
313.1 K, 4000 kPa, x1 = 0.0074 | 791.34
313.1 K, 5000 kPa, x1 = 0.0074 | 792.21
313.1 K, 6000 kPa, x1 = 0.0074 | 793.1
313.1 K, 7000 kPa, x1 = 0.0074 | 793.98
313.1 K, 8000 kPa, x1 = 0.0074 | 794.88
313.1 K, 9000 kPa, x1 = 0.0074 | 795.77
313.1 K, 10000 kPa, x1 = 0.0074 | 796.66
313.1 K, 11000 kPa, x1 = 0.0074 | 797.53
313.1 K, 12000 kPa, x1 = 0.0074 | 798.41
313.1 K, 13000 kPa, x1 = 0.0074 | 799.28
313.1 K, 14000 kPa, x1 = 0.0074 | 800.14
313.1 K, 15000 kPa, x1 = 0.0074 | 800.98
313.1 K, 16000 kPa, x1 = 0.0074 | 801.81
313.1 K, 17000 kPa, x1 = 0.0074 | 802.63
313.1 K, 18000 kPa, x1 = 0.0074 | 803.44
313.1 K, 19000 kPa, x1 = 0.0074 | 804.23
313.1 K, 20000 kPa, x1 = 0.0074 | 805
313.13 K, 1000 kPa, x1 = 0.0136 | 801.85
313.13 K, 2000 kPa, x1 = 0.0136 | 802.69
313.13 K, 3000 kPa, x1 = 0.0136 | 803.55
313.13 K, 4000 kPa, x1 = 0.0136 | 804.42
313.13 K, 5000 kPa, x1 = 0.0136 | 805.28
313.13 K, 6000 kPa, x1 = 0.0136 | 806.15
313.13 K, 7000 kPa, x1 = 0.0136 | 807.04
313.13 K, 8000 kPa, x1 = 0.0136 | 807.92
313.13 K, 9000 kPa, x1 = 0.0136 | 808.79
313.13 K, 10000 kPa, x1 = 0.0136 | 809.66
313.13 K, 11000 kPa, x1 = 0.0136 | 810.53
313.13 K, 12000 kPa, x1 = 0.0136 | 811.4
313.13 K, 13000 kPa, x1 = 0.0136 | 812.25
313.13 K, 14000 kPa, x1 = 0.0136 | 813.1
313.13 K, 15000 kPa, x1 = 0.0136 | 813.94
313.13 K, 16000 kPa, x1 = 0.0136 | 814.77
313.13 K, 17000 kPa, x1 = 0.0136 | 815.58
313.13 K, 18000 kPa, x1 = 0.0136 | 816.37
313.13 K, 19000 kPa, x1 = 0.0136 | 817.16
313.13 K, 20000 kPa, x1 = 0.0136 | 817.92
323.03 K, 1000 kPa, x1 = 0.0012 | 766.88
323.03 K, 2000 kPa, x1 = 0.0012 | 767.82
323.03 K, 3000 kPa, x1 = 0.0012 | 768.76
323.03 K, 4000 kPa, x1 = 0.0012 | 769.71
323.03 K, 5000 kPa, x1 = 0.0012 | 770.66
323.03 K, 6000 kPa, x1 = 0.0012 | 771.62
323.03 K, 7000 kPa, x1 = 0.0012 | 772.58
323.03 K, 8000 kPa, x1 = 0.0012 | 773.53
323.03 K, 9000 kPa, x1 = 0.0012 | 774.49
323.03 K, 10000 kPa, x1 = 0.0012 | 775.44
323.03 K, 11000 kPa, x1 = 0.0012 | 776.38
323.03 K, 12000 kPa, x1 = 0.0012 | 777.32
323.03 K, 13000 kPa, x1 = 0.0012 | 778.24
323.03 K, 14000 kPa, x1 = 0.0012 | 779.15
323.03 K, 15000 kPa, x1 = 0.0012 | 780.06
323.03 K, 16000 kPa, x1 = 0.0012 | 780.94
323.03 K, 17000 kPa, x1 = 0.0012 | 781.82
323.03 K, 18000 kPa, x1 = 0.0012 | 782.68
323.03 K, 19000 kPa, x1 = 0.0012 | 783.53
323.03 K, 20000 kPa, x1 = 0.0012 | 784.35
323.04 K, 1000 kPa, x1 = 0.0074 | 779.9
323.04 K, 1000 kPa, x1 = 0.0196 | 808.75
323.04 K, 2000 kPa, x1 = 0.0074 | 780.82
323.04 K, 2000 kPa, x1 = 0.0196 | 809.64
323.04 K, 3000 kPa, x1 = 0.0074 | 781.75
323.04 K, 3000 kPa, x1 = 0.0196 | 810.53
323.04 K, 4000 kPa, x1 = 0.0074 | 782.68
323.04 K, 4000 kPa, x1 = 0.0196 | 811.42
323.04 K, 5000 kPa, x1 = 0.0074 | 783.61
323.04 K, 5000 kPa, x1 = 0.0196 | 812.32
323.04 K, 6000 kPa, x1 = 0.0074 | 784.55
323.04 K, 6000 kPa, x1 = 0.0196 | 813.21
323.04 K, 7000 kPa, x1 = 0.0074 | 785.48
323.04 K, 7000 kPa, x1 = 0.0196 | 814.12
323.04 K, 8000 kPa, x1 = 0.0074 | 786.42
323.04 K, 8000 kPa, x1 = 0.0196 | 815.02
323.04 K, 9000 kPa, x1 = 0.0074 | 787.36
323.04 K, 9000 kPa, x1 = 0.0196 | 815.91
323.04 K, 10000 kPa, x1 = 0.0074 | 788.29
323.04 K, 10000 kPa, x1 = 0.0196 | 816.8
323.04 K, 11000 kPa, x1 = 0.0074 | 789.22
323.04 K, 11000 kPa, x1 = 0.0196 | 817.69
323.04 K, 12000 kPa, x1 = 0.0074 | 790.13
323.04 K, 12000 kPa, x1 = 0.0196 | 818.56
323.04 K, 13000 kPa, x1 = 0.0074 | 791.03
323.04 K, 13000 kPa, x1 = 0.0196 | 819.44
323.04 K, 14000 kPa, x1 = 0.0074 | 791.94
323.04 K, 14000 kPa, x1 = 0.0196 | 820.29
323.04 K, 15000 kPa, x1 = 0.0074 | 792.82
323.04 K, 15000 kPa, x1 = 0.0196 | 821.15
